{"source": "patent US11279681B2", "about": "“3-alkyl bicyclic [4,5,0] hydroxamic acids as HDAC inhibitors” (Valo Health, Inc., priority 2015, dated 2022)", "molecular_target": "T1, HDAC6 (Homo sapiens, UniProt Q9UBN7)", "T1 sequence (Q9UBN7 1-1215)": "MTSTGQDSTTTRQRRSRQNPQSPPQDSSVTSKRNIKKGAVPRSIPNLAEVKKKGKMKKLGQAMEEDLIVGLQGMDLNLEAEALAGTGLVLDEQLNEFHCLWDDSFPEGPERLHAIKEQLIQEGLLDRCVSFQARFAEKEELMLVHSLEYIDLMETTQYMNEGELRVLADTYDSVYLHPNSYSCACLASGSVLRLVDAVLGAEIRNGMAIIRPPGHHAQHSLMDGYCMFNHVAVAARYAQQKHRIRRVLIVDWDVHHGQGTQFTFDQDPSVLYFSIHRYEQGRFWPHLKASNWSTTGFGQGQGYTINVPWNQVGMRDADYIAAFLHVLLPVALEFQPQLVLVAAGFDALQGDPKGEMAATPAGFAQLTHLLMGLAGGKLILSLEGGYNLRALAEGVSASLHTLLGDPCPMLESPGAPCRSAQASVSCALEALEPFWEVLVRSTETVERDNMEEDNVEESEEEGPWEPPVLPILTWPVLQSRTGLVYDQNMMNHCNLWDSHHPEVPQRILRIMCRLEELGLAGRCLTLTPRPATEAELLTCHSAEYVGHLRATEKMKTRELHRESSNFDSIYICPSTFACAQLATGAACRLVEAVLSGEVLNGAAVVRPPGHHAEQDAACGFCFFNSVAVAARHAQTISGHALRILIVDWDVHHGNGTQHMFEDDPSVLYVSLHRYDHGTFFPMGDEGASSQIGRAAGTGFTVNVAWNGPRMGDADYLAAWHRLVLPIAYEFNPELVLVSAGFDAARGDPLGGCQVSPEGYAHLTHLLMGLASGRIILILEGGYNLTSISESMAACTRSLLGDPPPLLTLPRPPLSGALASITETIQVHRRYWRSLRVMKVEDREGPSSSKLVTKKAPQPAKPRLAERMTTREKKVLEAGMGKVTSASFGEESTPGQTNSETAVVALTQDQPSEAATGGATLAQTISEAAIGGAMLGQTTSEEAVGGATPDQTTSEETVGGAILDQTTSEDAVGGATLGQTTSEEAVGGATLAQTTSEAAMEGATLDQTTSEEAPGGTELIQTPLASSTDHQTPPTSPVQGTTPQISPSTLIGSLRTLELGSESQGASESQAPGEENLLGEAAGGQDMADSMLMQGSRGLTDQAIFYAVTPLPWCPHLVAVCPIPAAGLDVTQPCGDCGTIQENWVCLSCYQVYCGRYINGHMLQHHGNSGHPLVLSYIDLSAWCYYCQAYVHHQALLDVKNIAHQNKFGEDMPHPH", "assay": "In vitro histone deacetylase assay: enzymatic HDAC6 electrophoretic mobility shift assay", "format": "biochemical", "details": "full length human recombinant HDAC6, 1 nM enzyme, 2 μM peptide substrate RHKK(Ac)-NH2, 25° C.; read-out: Inhibitory Concentration (IC50) Values for Representative Compounds against HDAC6, Activity Range", "data": [{"smiles": "C[C@H]1COc2cc(C(=O)NO)ccc2CN1C(=O)OC1CCOCC1", "note": "[tetrahydro-2H-pyran-4-yl(S)-8-(hydroxycarbamoyl)-3-methyl-2,3-dihydrobenzo[f][1,4]oxazepine-4(5H)-carboxylate]", "values": [{"measurement": "IC50", "result": "≤ 100", "unit": "nM"}]}]}
